The target in the assay is T1, EP4 receptor (Homo sapiens, UniProt P35408).
T1 construct: BT549 breast cancer cells, express high endogenous EP4 levels and very low EP2 levels; host or cells: BT549 breast cancer cells
Briefly: hEP4 cAMP assay (BT549 breast cancer cells, HTRF cAMP, PGE2 stimulation). The assay is classed as cell-based. Conditions: antagonistic activity, PGE2 6 nM (EC80). Put shortly: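 BT549 cells, with endogenous EP4 and very low EP2, were preincubated 45 min at room temperature with compound in HBSS/HEPES/BSA buffer with 2 mM IBMX. They were then stimulated 30 min with 6 nM PGE2 (EC80). cAMP was measured by HTRF competitive immunoassay against a calibrator; IC50 from duplicate dose-response as % of DMSO control.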

T1 sequence (P35408 whole entry): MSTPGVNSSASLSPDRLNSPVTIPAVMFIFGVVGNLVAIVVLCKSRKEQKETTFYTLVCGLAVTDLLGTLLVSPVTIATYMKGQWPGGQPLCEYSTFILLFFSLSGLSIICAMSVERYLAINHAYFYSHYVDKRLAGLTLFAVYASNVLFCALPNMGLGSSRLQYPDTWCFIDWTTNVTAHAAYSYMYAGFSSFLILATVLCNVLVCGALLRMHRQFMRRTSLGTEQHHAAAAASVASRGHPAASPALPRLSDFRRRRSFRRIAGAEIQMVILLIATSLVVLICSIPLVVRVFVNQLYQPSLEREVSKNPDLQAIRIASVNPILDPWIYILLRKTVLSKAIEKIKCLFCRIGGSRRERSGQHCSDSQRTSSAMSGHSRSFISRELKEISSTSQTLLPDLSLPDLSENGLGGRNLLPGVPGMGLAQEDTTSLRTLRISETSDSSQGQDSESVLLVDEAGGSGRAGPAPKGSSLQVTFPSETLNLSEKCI

Usually IC50 stands for the concentration at which inhibition is half-maximal. High values mean weaker potency in that assay, low ones greater potency in that assay. Regarding `Cc1sc2c(C)cc(F)cc2c1CCNc1cc(-c2ccc(C(=O)O)c(OCCO)c2)ncn1` [Example 86, 4-{6-[2-(5-fluoro-2,7-dimethyl-benzo[b]thiophen-3-yl)-ethylamino]-pyrimidin-4-yl}-2-(2-hydroxy-ethoxy)-benzoic acid], it took 0.289 µM to reach half-maximal inhibition (IC50). `CCCSc1cc(-c2cc(NCCc3c(C)sc4c(C)cccc34)ncn2)ccc1C(=O)O` [Example 87, 4-{6-[2-(2,7-Dimethyl-benzo[b]thiophen-3-yl)-ethylamino]-pyrimidin-4-yl}-2-propylsulfanyl-benzoic acid] displayed a half-inhibitory concentration (IC50) of 0.451 µM.

Turning to `CCCSc1cc(-c2cc(NCCc3c(C)sc4ccccc34)ncn2)ccc1C(=O)O` [Example 88, 4-{6-[2-(2-Methyl-benzo[b]thiophen-3-yl)-ethylamino]-pyrimidin-4-yl}-2-propylsulfanyl-benzoic acid], the concentration for half-maximal inhibition (IC50) was 0.695 µM. For `CCCSc1cc(-c2cc(NCCc3c(C)oc4ccccc34)ncn2)ccc1C(=O)O` [Example 89, 4-{6-[2-(2-Methyl-benzofuran-3-yl)-ethylamino]-pyrimidin-4-yl}-2-propylsulfanyl-benzoic acid], the half-maximal inhibitory concentration (IC50) worked out at 1.14 µM. As for `Cc1sc2c(C)cccc2c1CCNc1cc(-c2ccc(C(=O)O)c(SC(C)C)c2)ncn1` [Example 90, 4-{6-[2-(2,7-Dimethyl-benzo[b]thiophen-3-yl)-ethylamino]-pyrimidin-4-yl}-2-isopropylsulfanyl-benzoic acid], the half-inhibitory concentration (IC50) was determined as 0.338 µM. `Cc1sc2ccccc2c1CCNc1cc(-c2ccc(C(=O)O)c(SC(C)C)c2)ncn1` [Example 91, 2-Isopropylsulfanyl-4-{6-[2-(2-methyl-benzo[b]thiophen-3-yl)-ethylamino]-pyrimidin-4-yl}-benzoic acid] yielded an IC50 of 0.539 µM. As to `Cc1oc2ccccc2c1CCNc1cc(-c2ccc(C(=O)O)c(SC(C)C)c2)ncn1` [Example 92, 2-Isopropylsulfanyl-4-{6-[2-(2-methyl-benzofuran-3-yl)-ethylamino]-pyrimidin-4-yl}-benzoic acid], half-maximal inhibition (IC50) required 0.672 µM. In turn, `CCc1cc(-c2cc(NCCc3c(C)sc4c(C)cc(F)cc34)ncn2)cc(C)c1CC(=O)O` [Example 194, (2-Ethyl-4-{6-[2-(5-fluoro-2,7-dimethyl-benzo[b]thiophen-3-yl)-ethylamino]-pyrimidin-4-yl}-6-methyl-phenyl)-acetic acid] registered a half-inhibitory concentration (IC50) of 0.071 µM. Regarding `Cc1sc2c(C)cc(F)cc2c1CCNc1cc(-c2ccc(C(=O)O)c(OC3CC3)c2)ncn1` [Example 195, 2-Cyclopropoxy-4-{6-[2-(5-fluoro-2,7-dimethyl-benzo[b]thiophen-3-yl)-ethylamino]-pyrimidin-4-yl}-benzoic acid], half-maximal inhibition (IC50) was put at 0.048 µM.

With `Cc1sc2c(C)cc(F)cc2c1CCNc1cc(-c2ccc(CC(=O)O)c(OC3CC3)c2)ncn1` [Example 196, (2-Cyclopropoxy-4-{6-[2-(5-fluoro-2,7-dimethyl-benzo[b]thiophen-3-yl)-ethylamino]-pyrimidin-4-yl}-phenyl)-acetic acid], the 50% inhibitory concentration (IC50) was 0.1 µM. The result for `CCOc1cc(-c2cc(NCCc3c(C)sc4c(C)cc(F)cc34)ncn2)ccc1-c1cc(O)no1` [Example 202, 5-(2-Ethoxy-4-{6-[2-(5-fluoro-2,7-dimethyl-benzo[b]thiophen-3-yl)-ethylamino]-pyrimidin-4-yl}-phenyl)-isoxazol-3-ol [tautomeric form: 5-(2-ethoxy-4-(6-((2-(5-fluoro-2,7-dimethylbenzo[b]thiophen-3-yl)ethyl)amino)pyrimidin-4-yl)phenyl)isoxazol-3(2H)-one]] reads 0.297 µM.

For the origin of these results see patent US11325899B2, “Benzofurane and benzothiophene derivatives as PGE2 receptor modulators” (IDORSIA PHARMACEUTICALS LTD, priority 2017, dated 2022).
